Here are results for 9 molecules from publication PMC11013945, “Antiprotozoal Activity of Plants Used in the Management of Sleeping Sickness in Angola and Bioactivity-Guided Fractionation of Brasenia schreberi J.F.Gmel and Nymphaea lotus L. Active against T. b. rhodesiense” (Molecules, 2024).

By IC50 is commonly meant the concentration that gives 50% inhibition. In general, inhibition refers to the change of the read-out against control, counted positive when it falls.

Assay [1] relates to P. falciparum. On the set-up: method as in PMID 29333044. To be noted: isolated from Alectryon serratus leaves; cited from earlier work.
Assay [2] concerns P. falciparum. Briefly: In vitro growth inhibition of P. falciparum erythrocytic stages. To be noted: Table 4, pure compounds; for IC50: Plasmodium falciparum. The class given is cell-based, Plasmodium falciparum. The procedure:
(§1) In vitro growth inhibitory activity of the extracts and pure compounds against T. cruzi (intracellular amastigote forms grown in L6 rat myoblasts), L. donovani (axenic amastigote forms in acidic medium or intracellular amastigotes in mouse primary macrophages), and P. falciparum (erythrocytic stages in culture) was determined as described previously. Testing against intracellular L. donovani was performed as follows: mouse peritoneal macrophages (4 × 104 in 100 µL RPMI 1640 medium with 10% heat-inactivated FBS) in 96-well plates were infected with amastigotes (2 × 105 in 100 µL medium). After 24 h, the medium was exchanged twice to remove free amastigotes. Test compounds were added, and the plates incubated for 96 h at 37 °C under 5% CO2. Then, the medium was removed, the cells were fixed with 50 µL 4% formaldehyde, and stained with 5 µM DRAQ5. Nine images were taken per well on a ImageXpress XLS (MD) microscope (Molecular Devices, San Jose, CA, USA) using a 20× air objective (635 nm excitation: 690/50 emission) and analyzed with a script developed on Meta Xpress (MD). Cytotoxicity against L6 cells was assessed by using a similar protocol as outlined for IC50 determination with T. b. rhodesiense, except that rat skeletal myoblasts (L6 cells) were used. The medium was RPMI 1640 medium supplemented with 1% L-glutamine (200 mM) and 10% fetal bovine serum. Reference compounds were melarsoprol for T. b. rhodesiense, benznidazole for T. cruzi, miltefosine for L. donovani, chloroquine and artesunate for P. falciparum, and podophyllotoxin for L6 cells.

Assay [3] deals with sn-glycerol-3-phosphate oxidase system of T. b. brucei. The conditions noted are these: in vitro; cited from earlier work.
A further assay concerns epimastigote T. cruzi. On the set-up: method as in PMID 27347554. The conditions noted are these: read-out: IC50 against epimastigote T. cruzi; cited from earlier work.
The test system of the next assay is L. donovani. Briefly: In vitro growth inhibition of L. donovani axenic amastigotes. The class given is cell-based, Leishmania donovani. The conditions noted are these: Table 4, pure compounds; for IC50: Leishmania donovani, axenic amastigote. The procedure: as §1
The test system of another assay is L6 cells. Briefly: Cytotoxicity against L6 cells. The class given is cell-based. To be noted: Rattus norvegicus, Table 4, pure compounds. Here is the method:
as §1

Another assay concerns T. cruzi. Briefly: In vitro growth inhibition of T. cruzi intracellular amastigotes grown in L6 rat myoblasts. In kind it is cell-based, Trypanosoma cruzi. To be noted: Table 4, pure compounds; for IC50: Trypanosoma cruzi, Myoblast, mean of two independent experiments. The procedure: as §1
The subject of assay [4] is T. b. rhodesiense STIB 900. Briefly: IC50 determination against T. b. rhodesiense, serial dilutions, Alamar blue. The class given is cell-based, Trypanosoma brucei rhodesiense. To be noted: Table 4, pure compounds; for IC50: Trypanosoma brucei. (In general: Alamar Blue is a resazurin reagent that responds to reducing activity.)
In assay [5] the test system is intracellular L. donovani. Briefly: Intramacrophage assay, intracellular L. donovani amastigotes in mouse peritoneal macrophages. To be noted: Leishmania donovani, Macrophage. The class given is cell-based. Here is the method: as §1, with “Reference compounds were melarsoprol for T. b. rhodesiense, benznidazole for T. cruzi, miltefosine for L. donovani, chloroquine and artesunate for P. falciparum, and podophyllotoxin for L6 cells.” left out

The subject of assay [6] is Trypanosoma brucei rhodesiense STIB900. Briefly: Growth inhibition (GI) of T. b. rhodesiense bloodstream forms at a single concentration, Alamar blue. In kind it is cell-based. To be noted: read-out: Growth inhibition (%). Here is the method: A total of 122 extracts were prepared from different parts of the nine plant species. Each plant part was extracted consecutively with hexane, dichloromethane, ethanol, methanol, and water. The extracts were tested for their in vitro growth inhibition (GI) activity against bloodstream forms of Trypanosoma brucei rhodesiense STIB900, our reference strain for drug testing against African trypanosomes at a concentration of 20 µg/mL. […] A detailed description of the plant species, the parts extracted, solvent, extraction yield, and percentage of growth inhibition (GI%) is given in Supplementary Table S1.
Growth inhibition (GI) activity against T. b. rhodesiense STIB 900 was determined as follows: in a 96-well microtiter plate, 50 µL of HMI-9 medium supplemented with 15% heat-inactivated horse serum were added to each well. A total of 10 µL of the plant extract stock solution was added to each well. Then, 50 µL of bloodstream-form trypanosomes were added, adjusted with a cell counter (CASY, Schärfe System, Germany) to 4 × 10^4 cells/mL. […] Then, the plate was read with a Spectramax Gemini XS microplate fluorometer (Molecular Devices Corporation, Sunnyvale, CA, USA) using an excitation wavelength of 530 nm and an emission wavelength of 590 nm. Fluorescence was expressed as percentage of the untreated control. […]

In a further assay the test system is leishmania. On the set-up: method as in PMID 16643059. To be noted: cited from earlier work.
[7] abbreviates: mean of two independent experiments.

Each structure is given as a SMILES string. Converted amounts (≈) assume the structure as drawn. A value given as a limit tells only on which side of the number the result lay.

Consider `O=C(O)c1cc(O)c(O)c(O)c1` [Gallic acid (1), gallic acid], for which the “IC50 against P. falciparum” value with P. falciparum [1] is 1.3 ng/mL (≈ 0.00764 µM). Further, the 50% inhibitory concentration (IC50) with P. falciparum [2] is > 10 µg/mL; in the assay on epimastigote T. cruzi, > 100 µM; in the assay on L. donovani it was 56 µg/mL (≈ 329 µM); with L6 cells, 16 µg/mL (≈ 94.1 µM); with T. cruzi, 66 µg/mL (≈ 388 µM); in assay [4] (setting [7]), 0.5 µg/mL (≈ 2.94 µM). Also, the “inhibition of sn-glycerol-3-phosphate oxidase system” value in assay [3] is “inhibited”. Moreover, the “L. donovani SI” value in the assay with L. donovani was 0.3. The “T. cruzi SI” value in the assay with T. cruzi is reported as 0.2. Moreover, the “T. b. rhodesiense SI” value in [4] amounted to 34.
On to `CC/C=C\C/C=C\C/C=C\CCCCCCCc1cc(O)cc(O)c1` [Resorcinol-alkyl (8), 5-[(8Z,11Z,14Z)-heptadeca-8,11,14-trienyl] resorcinol], for which the IC50 in assay [5] was > 11 µg/mL; in the assay on L. donovani, 2.5 µg/mL (≈ 7.3 µM); with L6 cells it was 13 µg/mL (≈ 38 µM); in the assay with T. cruzi it was 9.1 µg/mL (≈ 26.6 µM); in assay [4] (setting [7]) it was 5.3 µg/mL (≈ 15.5 µM). For the same molecule, the “L. donovani SI” value in the assay on L. donovani was determined as 5.2. The “T. cruzi SI” value in the assay with T. cruzi is 1.4. Also, the “T. b. rhodesiense SI” value in [4] was 2.5.
Take `O=c1c(O)c(-c2ccc(O)c(O)c2)oc2c(O)c(O[C@@H]3O[C@H](CO)[C@@H](O)[C@H](O)[C@H]3O)cc(O)c12` [Gossypetin-7-O-β-glucopyranoside (6), gossypetin-7-O-β-glucopyranoside]: the IC50 in the assay with L. donovani was determined as 53 µg/mL (≈ 110 µM); in the assay on L6 cells it was 8.9 µg/mL (≈ 18.5 µM); in the assay with T. cruzi, 12 µg/mL (≈ 25 µM); in assay [4] (setting [7]), 5.5 µg/mL (≈ 11.4 µM). Further, the “L. donovani SI” value with L. donovani was found to be 0.2. For the same molecule, in the assay on T. cruzi, the “T. cruzi SI” value amounted to 0.8. In assay [4], the “T. b. rhodesiense SI” value came to 1.6.
As for `COC(=O)c1cc(O)c(O)c(O)c1` [Methyl gallate (2), methyl gallate], the “IC50 against P. falciparum” value with P. falciparum [1] is given as 2.5 ng/mL (≈ 0.0136 µM). The half-inhibitory concentration (IC50) in the assay with P. falciparum [2] was 3 µg/mL (≈ 16.3 µM); in the assay with epimastigote T. cruzi it was > 100 µM; in the assay on L. donovani it was 8.5 µg/mL (≈ 46.2 µM); in the assay with L6 cells it was 16 µg/mL (≈ 86.9 µM); in the assay with T. cruzi, 16 µg/mL (≈ 86.9 µM); in assay [4] (setting [7]), 1.1 µg/mL (≈ 5.97 µM). The “P. falciparum IC50” value in the assay with P. falciparum [2] came to 2.1 µg/mL. Moreover, the “P. falciparum SI” value in the assay on P. falciparum [2] is on record as 7.8. For the same molecule, the “inhibition of sn-glycerol-3-phosphate oxidase system” value in assay [3] is on record as “inhibited”. In the assay on L. donovani, the “L. donovani SI” value was found to be 1.9. Besides, the “T. cruzi SI” value with T. cruzi is given as 1.0. For the same molecule, in assay [4], the “T. b. rhodesiense SI” value came to 15.
Regarding `CCOC(=O)c1cc(O)c(O)c(O)c1` [Ethyl gallate (4), ethyl gallate], the IC50 in the assay on P. falciparum [2] was 2.1 µg/mL (≈ 10.6 µM); in the assay on epimastigote T. cruzi, > 100 µM; in the assay with L. donovani, 6.8 µg/mL (≈ 34.3 µM); with L6 cells, 15 µg/mL (≈ 75.7 µM); with T. cruzi, 16 µg/mL (≈ 80.7 µM); in assay [4] (setting [7]) it was 0.5 µg/mL (≈ 2.52 µM). In the assay with P. falciparum [2], the “P. falciparum IC50” value is 3.0 µg/mL. In addition, the “P. falciparum SI” value in the assay with P. falciparum [2] was determined as 4.9. In addition, the “L. donovani SI” value with L. donovani was determined as 2.2. Besides, in the assay on T. cruzi, the “T. cruzi SI” value is on record as 0.9. Further, in assay [4], the “T. b. rhodesiense SI” value is 25. The “T. b. rhodesiense IC50” value in assay [4] (setting [7]) worked out at 0.6 µg/mL.
On to `O=c1cc(-c2ccc(O)c(O)c2)oc2c(O)c(O[C@@H]3O[C@H](CO)[C@@H](O)[C@H](O)[C@H]3O)cc(O)c12` [Hypolaetin-7-O-glucoside (7), hypolaetin-7-O-glucoside], for which the IC50 in the assay on L. donovani amounted to 52 µg/mL (≈ 112 µM); in the assay on L6 cells, 19 µg/mL (≈ 40.9 µM); in the assay with T. cruzi, 49 µg/mL (≈ 106 µM); in assay [4] (setting [7]), 5.7 µg/mL (≈ 12.3 µM). In addition, the “L. donovani SI” value in the assay on L. donovani amounted to 0.4. For the same molecule, the “T. cruzi SI” value in the assay with T. cruzi stood at 0.4. The “T. b. rhodesiense SI” value in assay [4] is recorded as 3.2.
On to `Nc1nc(N)nc(Nc2ccc([As]3SCC(CO)S3)cc2)n1` (stereo not drawn) [melarsoprol], for which, in [6], the inhibition at 0.072 µg/mL is 98.4%.
As for `C=CCCC/C=C\C/C=C\CCCCCCCc1cc(O)cc(O)c1` [5-heptadeca-8′Z,11′Z,16-trienylresorcinol], in the assay with leishmania, the IC50 against leishmania is recorded as 3.6 µg/mL (≈ 10.5 µM).
For `O=C(OC[C@@H]1O[C@H](OC(=O)c2cc(O)c(O)c(O)c2)[C@@H](OC(=O)c2cc(O)c(O)c(O)c2)[C@H](OC(=O)c2cc(O)c(O)c(O)c2)[C@H]1OC(=O)c1cc(O)c(O)c(O)c1)c1cc(O)c(O)c(O)c1` [Pentagalloyl-β-glucopyranoside (5), 1,2,3,4,6 pentagalloyl-β-glucopyranoside], the IC50 is 6.7 µg/mL (≈ 7.12 µM) with P. falciparum [2]; 15 µg/mL (≈ 15.9 µM) in the assay with L. donovani; 21 µg/mL (≈ 22.3 µM) with L6 cells; 44 µg/mL (≈ 46.8 µM) with T. cruzi; 20 µg/mL (≈ 21.3 µM) in assay [4] (setting [7]). For the same molecule, the “P. falciparum SI” value with P. falciparum [2] came to 3.1. The “L. donovani SI” value with L. donovani is given as 1.4. The “T. cruzi SI” value in the assay with T. cruzi was 0.5. The “T. b. rhodesiense SI” value in assay [4] is 1.0.
